Data: the kinase profiling compilation of Christmann-Franck et al. (2016)
Several values for one entry are separate records, joined by “and”; a condition that tells them apart may be missing. Equal values may be shown once.

What was measured:
Assay in all cases: radiometric filter-binding kinase assay, Kinase HotSpot
Settings in all cases: compound 0.5 µM; ATP 10 µM
[1] = molecular target: ABL1 (human) (UniProt P00519)
[2] = molecular target: AXL (human) (UniProt P30530)
[3] = molecular target: BLK (human) (UniProt P51451)
[4] = molecular target: BRSK1 (human) (UniProt Q8TDC3)
[5] = molecular target: CAMK1 (human) (UniProt Q14012)
[6] = molecular target: CAMK1D (human) (UniProt Q8IU85)
[7] = molecular target: CDC42BPB (human) (UniProt Q9Y5S2)
[8] = molecular target: CDK4 CCND1 (human) (UniProt P24385+P11802)
[9] = molecular target: CDK4 CCND3 (human) (UniProt P30281+P11802)
[10] = molecular target: CDK5 CDK5R1 p35 (human) (UniProt Q00535+Q15078)
[11] = molecular target: CDK9 CCNT1 (human) (UniProt P50750+O60563)
[12] = molecular target: CLK1 (human) (UniProt P49759)
[13] = molecular target: CLK3 (human) (UniProt P49761)
[14] = molecular target: CSNK1A1 (human) (UniProt P48729)
[15] = molecular target: DMPK (human) (UniProt Q09013)
[16] = molecular target: DYRK3 (human) (UniProt O43781)
[17] = molecular target: EPHB4 (human) (UniProt P54760)
[18] = molecular target: FGFR3 (human) (UniProt P22607)
[19] = molecular target: FRK (human) (UniProt P42685)
[20] = molecular target: GRK5 (human) (UniProt P34947)
[21] = molecular target: JAK3 JH1 JH2 (human) (UniProt P52333)
[22] = molecular target: LCK (human) (UniProt P06239)
[23] = molecular target: LIMK1 (human) (UniProt P53667)
[24] = molecular target: LYN (human) (UniProt P07948)
[25] = molecular target: MAP3K3 (human) (UniProt Q99759)
[26] = molecular target: MARK2 (human) (UniProt Q7KZI7)
[27] = molecular target: MUSK (human) (UniProt O15146)
[28] = molecular target: PIM2 (human) (UniProt Q9P1W9)
[29] = molecular target: PRKD3 (human) (UniProt O94806)
[30] = molecular target: PRKG1 (human) (UniProt Q13976)
[31] = molecular target: RIPK2 (human) (UniProt O43353)
[32] = molecular target: ROCK2 (human) (UniProt O75116)
[33] = molecular target: ROS1 (human) (UniProt P08922)
[34] = molecular target: RPS6KB1 (human) (UniProt P23443)
[35] = molecular target: RPS6KB2 (human) (UniProt Q9UBS0)
[36] = molecular target: SGK2 (human) (UniProt Q9HBY8)
[37] = molecular target: STK39 (human) (UniProt Q9UEW8)
[38] = molecular target: TAOK1 (human) (UniProt Q7L7X3)
[39] = molecular target: TGFBR2 (human) (UniProt P37173)
[40] = molecular target: ULK2 (human) (UniProt Q8IYT8)
[41] = molecular target: WNK2 (human) (UniProt Q9Y3S1)
[42] = molecular target: YES1 (human) (UniProt P07947)

RPS6KB2 (human), sequence (Q9UBS0 whole entry, looked up): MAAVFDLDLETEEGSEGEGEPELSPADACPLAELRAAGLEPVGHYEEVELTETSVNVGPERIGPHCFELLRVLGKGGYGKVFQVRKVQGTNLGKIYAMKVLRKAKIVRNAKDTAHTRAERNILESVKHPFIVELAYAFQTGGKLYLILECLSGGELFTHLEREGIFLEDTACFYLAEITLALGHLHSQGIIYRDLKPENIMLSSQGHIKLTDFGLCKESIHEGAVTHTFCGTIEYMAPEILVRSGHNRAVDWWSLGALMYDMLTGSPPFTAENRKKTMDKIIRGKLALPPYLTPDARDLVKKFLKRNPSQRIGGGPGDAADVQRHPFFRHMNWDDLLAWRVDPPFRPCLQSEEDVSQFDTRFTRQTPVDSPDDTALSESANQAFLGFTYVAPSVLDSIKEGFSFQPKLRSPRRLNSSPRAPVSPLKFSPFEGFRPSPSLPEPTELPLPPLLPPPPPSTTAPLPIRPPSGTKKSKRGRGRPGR
MARK2 (human), sequence (Q7KZI7 whole entry, looked up): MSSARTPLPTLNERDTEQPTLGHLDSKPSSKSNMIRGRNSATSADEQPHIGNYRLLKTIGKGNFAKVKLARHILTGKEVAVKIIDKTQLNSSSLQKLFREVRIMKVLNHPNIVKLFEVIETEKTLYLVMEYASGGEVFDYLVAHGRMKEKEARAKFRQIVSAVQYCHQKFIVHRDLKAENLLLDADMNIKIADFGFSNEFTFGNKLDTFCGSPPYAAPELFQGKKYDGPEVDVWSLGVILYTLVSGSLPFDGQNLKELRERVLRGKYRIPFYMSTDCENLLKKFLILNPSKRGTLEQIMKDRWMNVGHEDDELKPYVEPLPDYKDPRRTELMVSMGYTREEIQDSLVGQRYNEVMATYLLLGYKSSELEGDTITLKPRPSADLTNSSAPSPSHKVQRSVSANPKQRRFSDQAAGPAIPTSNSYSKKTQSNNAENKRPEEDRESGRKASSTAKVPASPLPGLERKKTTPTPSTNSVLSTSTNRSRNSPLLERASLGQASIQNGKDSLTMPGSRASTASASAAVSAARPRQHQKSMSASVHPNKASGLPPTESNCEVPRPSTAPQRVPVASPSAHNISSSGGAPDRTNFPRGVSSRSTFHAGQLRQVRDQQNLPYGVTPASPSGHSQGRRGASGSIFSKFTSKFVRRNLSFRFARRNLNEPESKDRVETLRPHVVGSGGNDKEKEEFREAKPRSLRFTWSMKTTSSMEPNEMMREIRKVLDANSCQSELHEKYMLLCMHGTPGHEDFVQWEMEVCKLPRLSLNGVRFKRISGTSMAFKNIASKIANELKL
ROS1 (human), sequence (P08922 whole entry, looked up): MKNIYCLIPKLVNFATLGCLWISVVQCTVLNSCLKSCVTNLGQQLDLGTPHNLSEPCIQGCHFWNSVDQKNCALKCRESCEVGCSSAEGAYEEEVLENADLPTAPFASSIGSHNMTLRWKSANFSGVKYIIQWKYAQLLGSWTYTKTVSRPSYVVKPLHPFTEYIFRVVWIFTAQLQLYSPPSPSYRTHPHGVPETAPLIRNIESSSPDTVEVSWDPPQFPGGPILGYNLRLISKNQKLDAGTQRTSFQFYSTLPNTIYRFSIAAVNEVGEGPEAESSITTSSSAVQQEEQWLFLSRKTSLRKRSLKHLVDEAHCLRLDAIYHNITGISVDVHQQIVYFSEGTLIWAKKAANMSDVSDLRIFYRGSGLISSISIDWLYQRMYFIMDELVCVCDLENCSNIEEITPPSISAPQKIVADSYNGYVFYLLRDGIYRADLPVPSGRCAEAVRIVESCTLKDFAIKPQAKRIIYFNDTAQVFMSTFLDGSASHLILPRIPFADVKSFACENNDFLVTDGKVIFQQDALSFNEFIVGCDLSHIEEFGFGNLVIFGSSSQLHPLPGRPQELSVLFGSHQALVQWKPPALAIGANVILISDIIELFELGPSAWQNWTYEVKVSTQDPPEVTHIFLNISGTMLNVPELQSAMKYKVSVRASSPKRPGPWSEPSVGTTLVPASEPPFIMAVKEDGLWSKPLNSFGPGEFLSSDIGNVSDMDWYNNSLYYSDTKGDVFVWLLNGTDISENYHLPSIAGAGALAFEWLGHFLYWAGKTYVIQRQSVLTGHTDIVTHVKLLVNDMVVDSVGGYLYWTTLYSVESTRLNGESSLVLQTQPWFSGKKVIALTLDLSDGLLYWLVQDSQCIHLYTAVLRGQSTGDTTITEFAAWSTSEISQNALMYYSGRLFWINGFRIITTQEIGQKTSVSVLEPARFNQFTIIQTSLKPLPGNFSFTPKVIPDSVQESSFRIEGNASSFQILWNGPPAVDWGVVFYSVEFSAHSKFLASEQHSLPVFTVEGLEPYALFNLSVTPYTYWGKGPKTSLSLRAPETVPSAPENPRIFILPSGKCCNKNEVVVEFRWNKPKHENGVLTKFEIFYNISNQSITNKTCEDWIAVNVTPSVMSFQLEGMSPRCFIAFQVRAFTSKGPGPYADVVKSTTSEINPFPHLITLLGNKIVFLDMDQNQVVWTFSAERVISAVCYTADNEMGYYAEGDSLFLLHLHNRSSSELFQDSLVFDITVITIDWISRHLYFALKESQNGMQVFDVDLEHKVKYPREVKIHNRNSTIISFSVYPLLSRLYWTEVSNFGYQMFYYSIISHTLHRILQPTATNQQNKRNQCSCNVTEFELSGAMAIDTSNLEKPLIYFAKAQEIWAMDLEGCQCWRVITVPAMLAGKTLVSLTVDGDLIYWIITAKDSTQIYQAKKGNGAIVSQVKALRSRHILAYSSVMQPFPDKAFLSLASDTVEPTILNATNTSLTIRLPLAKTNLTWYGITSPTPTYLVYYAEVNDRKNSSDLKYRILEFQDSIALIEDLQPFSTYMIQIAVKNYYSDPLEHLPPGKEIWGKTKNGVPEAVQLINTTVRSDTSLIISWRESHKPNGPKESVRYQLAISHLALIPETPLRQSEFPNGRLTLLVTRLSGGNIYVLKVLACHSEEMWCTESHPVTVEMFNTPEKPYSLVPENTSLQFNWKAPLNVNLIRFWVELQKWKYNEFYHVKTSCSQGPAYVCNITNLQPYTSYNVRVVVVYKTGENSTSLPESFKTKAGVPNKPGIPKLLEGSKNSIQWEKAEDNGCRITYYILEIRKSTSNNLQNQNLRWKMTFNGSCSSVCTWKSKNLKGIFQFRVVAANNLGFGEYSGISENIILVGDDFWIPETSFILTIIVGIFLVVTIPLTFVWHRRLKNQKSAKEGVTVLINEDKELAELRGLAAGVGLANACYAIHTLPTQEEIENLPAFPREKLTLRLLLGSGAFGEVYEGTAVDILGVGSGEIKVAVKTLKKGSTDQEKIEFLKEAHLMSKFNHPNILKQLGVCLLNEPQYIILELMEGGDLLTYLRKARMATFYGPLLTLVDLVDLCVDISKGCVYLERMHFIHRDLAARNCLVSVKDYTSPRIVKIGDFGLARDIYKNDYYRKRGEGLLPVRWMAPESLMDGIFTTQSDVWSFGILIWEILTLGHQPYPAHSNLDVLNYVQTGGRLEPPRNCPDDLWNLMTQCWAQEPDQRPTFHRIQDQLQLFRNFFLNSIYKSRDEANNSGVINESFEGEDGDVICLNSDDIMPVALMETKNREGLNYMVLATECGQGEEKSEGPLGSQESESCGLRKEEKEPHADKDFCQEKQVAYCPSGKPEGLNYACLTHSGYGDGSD
MAP3K3 (human), sequence (Q99759 whole entry, looked up): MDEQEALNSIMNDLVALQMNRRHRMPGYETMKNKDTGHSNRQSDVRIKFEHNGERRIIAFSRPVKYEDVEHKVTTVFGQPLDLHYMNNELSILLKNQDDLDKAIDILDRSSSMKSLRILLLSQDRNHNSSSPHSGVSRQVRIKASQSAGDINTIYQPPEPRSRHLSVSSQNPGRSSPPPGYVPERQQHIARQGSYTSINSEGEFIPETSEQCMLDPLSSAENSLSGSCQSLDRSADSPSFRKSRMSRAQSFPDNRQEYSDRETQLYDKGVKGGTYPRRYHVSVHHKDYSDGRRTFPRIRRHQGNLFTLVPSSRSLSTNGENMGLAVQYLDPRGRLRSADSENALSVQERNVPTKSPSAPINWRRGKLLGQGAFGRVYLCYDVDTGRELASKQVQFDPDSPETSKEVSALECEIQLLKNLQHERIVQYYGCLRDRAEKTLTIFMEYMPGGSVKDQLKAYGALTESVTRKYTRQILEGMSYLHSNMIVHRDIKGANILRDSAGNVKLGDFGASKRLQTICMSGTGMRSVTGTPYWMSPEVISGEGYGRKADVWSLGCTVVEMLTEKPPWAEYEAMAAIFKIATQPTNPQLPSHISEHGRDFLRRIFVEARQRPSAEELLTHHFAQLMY
CAMK1D (human), sequence (Q8IU85 whole entry, looked up): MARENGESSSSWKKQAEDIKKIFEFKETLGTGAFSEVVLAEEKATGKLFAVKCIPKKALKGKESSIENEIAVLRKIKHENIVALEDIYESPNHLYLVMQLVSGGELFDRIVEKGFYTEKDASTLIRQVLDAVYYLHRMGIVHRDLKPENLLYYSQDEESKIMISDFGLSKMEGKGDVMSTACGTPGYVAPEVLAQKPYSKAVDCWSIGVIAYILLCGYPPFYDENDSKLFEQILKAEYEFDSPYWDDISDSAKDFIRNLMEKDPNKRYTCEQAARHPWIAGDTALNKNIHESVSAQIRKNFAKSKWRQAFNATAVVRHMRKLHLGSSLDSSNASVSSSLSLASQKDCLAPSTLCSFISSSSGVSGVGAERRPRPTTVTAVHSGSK
PIM2 (human), sequence (Q9P1W9 whole entry, looked up): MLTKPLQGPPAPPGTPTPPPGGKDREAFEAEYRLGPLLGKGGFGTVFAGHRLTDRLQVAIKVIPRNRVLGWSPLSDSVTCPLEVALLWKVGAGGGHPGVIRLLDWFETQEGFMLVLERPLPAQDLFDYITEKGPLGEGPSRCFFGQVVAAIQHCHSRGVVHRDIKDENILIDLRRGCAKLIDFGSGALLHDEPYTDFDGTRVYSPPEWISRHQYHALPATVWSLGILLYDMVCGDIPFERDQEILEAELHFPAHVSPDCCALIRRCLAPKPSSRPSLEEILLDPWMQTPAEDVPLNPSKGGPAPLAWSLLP

SMILES: CN(C)c1ccc(/C=C2\C(=O)Nc3ccccc32)cc1
- residual activity [1]: 103%
- residual activity [2]: 93.8%
- residual activity [3]: 99.2%
- residual activity [4]: 99.6%
- residual activity [5]: 104%
- residual activity [6]: 98.8%
- residual activity [7]: 89.5%
- residual activity [8]: 97.7%
- residual activity [9]: 98.9%
- residual activity [10]: 104%
- residual activity [11]: 94.5%
- residual activity [12]: 103%
- residual activity [13]: 89.4%
- residual activity [14]: 105%
- residual activity [15]: 105%
- residual activity [16]: 99.5%
- residual activity [17]: 97.4%
- residual activity [18]: 96.3%
- residual activity [19]: 102%
- residual activity [20]: 104%
- residual activity [21]: 113%
- residual activity [22]: 93%
- residual activity [23]: 97.7%
- residual activity [24]: 108% and 97.8%
- residual activity [25]: 104%
- residual activity [26]: 105%
- residual activity [27]: 96.4%
- residual activity [28]: 82.4%
- residual activity [29]: 99.2%
- residual activity [30]: 86.9% and 99.7%
- residual activity [31]: 87.8%
- residual activity [32]: 95.2%
- residual activity [33]: 94.9%
- residual activity [34]: 97.1%
- residual activity [35]: 101%
- residual activity [36]: 98.6%
- residual activity [37]: 96.6%
- residual activity [38]: 94.7%
- residual activity [39]: 124%
- residual activity [40]: 97.1%
- residual activity [41]: 104%
- residual activity [42]: 89.3%

SMILES: COc1ccc(Cl)cc1NC(=O)Nc1cc(C)nc2ccccc12
- residual activity [1]: 99.5%
- residual activity [2]: 94%
- residual activity [3]: 99.8%
- residual activity [4]: 92.8%
- residual activity [5]: 91.7%
- residual activity [6]: 99.9%
- residual activity [7]: 94.4%
- residual activity [8]: 98.8%
- residual activity [9]: 98.5%
- residual activity [10]: 102%
- residual activity [11]: 98.2%
- residual activity [12]: 97.6%
- residual activity [13]: 97.5%
- residual activity [14]: 101%
- residual activity [15]: 103%
- residual activity [16]: 106%
- residual activity [17]: 93.7%
- residual activity [18]: 96.3%
- residual activity [19]: 98.4%
- residual activity [20]: 109%
- residual activity [21]: 103%
- residual activity [22]: 98.2%
- residual activity [23]: 87.1%
- residual activity [24]: 111% and 99.2%
- residual activity [25]: 111%
- residual activity [26]: 99.5%
- residual activity [27]: 93.3%
- residual activity [28]: 99.8%
- residual activity [29]: 97.1%
- residual activity [30]: 108% and 97.5%
- residual activity [31]: 82.7%
- residual activity [32]: 96.7%
- residual activity [33]: 92.5%
- residual activity [34]: 96%
- residual activity [35]: 106%
- residual activity [36]: 96.3%
- residual activity [37]: 98.5%
- residual activity [38]: 103%
- residual activity [39]: 111%
- residual activity [40]: 106%
- residual activity [41]: 104%
- residual activity [42]: 90.1%

SMILES: O=C1Nc2ccc(Br)cc2/C1=C\c1cc2c([nH]1)CCCC2
- residual activity [1]: 91.8%
- residual activity [2]: 90%
- residual activity [3]: 74.4%
- residual activity [4]: 80.8%
- residual activity [5]: 98.4%
- residual activity [6]: 96.8%
- residual activity [7]: 114%
- residual activity [8]: 97.9%
- residual activity [9]: 99.8%
- residual activity [10]: 84.6%
- residual activity [11]: 90%
- residual activity [12]: 97.2%
- residual activity [13]: 101%
- residual activity [14]: 100%
- residual activity [15]: 101%
- residual activity [16]: 94%
- residual activity [17]: 88.6%
- residual activity [18]: 55.8%
- residual activity [19]: 91%
- residual activity [20]: 106%
- residual activity [21]: 89.3%
- residual activity [22]: 84.5%
- residual activity [23]: 83%
- residual activity [24]: 70.8% and 86.8%
- residual activity [25]: 88.6%
- residual activity [26]: 77%
- residual activity [27]: 88.6%
- residual activity [28]: 100%
- residual activity [29]: 90.3%
- residual activity [30]: 77% and 87.9%
- residual activity [31]: 87.2%
- residual activity [32]: 92.8%
- residual activity [33]: 98.6%
- residual activity [34]: 91.9%
- residual activity [35]: 102%
- residual activity [36]: 101%
- residual activity [37]: 86%
- residual activity [38]: 92.3%
- residual activity [39]: 101%
- residual activity [40]: 114%
- residual activity [41]: 101%
- residual activity [42]: 67.2%
